In patent US8394852B2, “Inotilone derivatives as coherent biological response modifier (cBMR)” (Sami Labs Ltd, priority 2009, dated 2013):

Legend:
[1] = system: iNOS (inducible nitric oxide synthase); experiment: LPS-induced iNOS protein expression by Western blotting in RAW 264.7 cells; type: cell-based, murine; details: E coli LPS 100 ng/mL, co-treatment
Protocol: (§1) RAW 264.7 cells, derived from murine macrophage (American Type Culture Collection, MD, USA) were cultured in DMEM supplemented with 10% endotoxin-free, heat-inactivated fetal calf serum, 100 units/mL penicillin and 100 mcg/mL streptomycin, the culture media was changed to serum-free DMEM without phenol red on reaching cell density 2-3×10^6 cells/mL, and the cells activated by incubation in medium containing E coli LPS (100 ng/mL). Test compounds dissolved in dimethylsulfoxide were added together with the LPS. Cells treated with 0.05% DMSO acted as vehicle control.
(§2) The effects of test compounds on LPS-induced iNOS (inducible nitric oxide synthase) and COX-2 protein expressions were studied by Western blotting.

[2] = system: PI3K/Akt and extracellular signal-regulated kinase 1/2 and p38 mitogen-activated protein kinase; details: cited from earlier work
[3] = system: nuclear factor-kappaB (NFkappaB); details: cited from earlier work
COX-2 [4] = details: through decreasing the enzyme activity of COX-2; cited from earlier work
iNOS = details: cited from earlier work
COX-2 [5] = experiment: LPS-induced COX-2 protein expression by Western blotting in RAW 264.7 cells; type: cell-based, murine; details: E coli LPS 100 ng/mL, co-treatment
Protocol: as §1, §2

| Compound | effect on LPS-induced iNOS protein expression [1] | LPS-induced activation of PI3K/Akt, ERK 1/2 and p38 MAPK [2] | LPS-induced nuclear translocation of NFkappaB subunit and NFkappaB-dependent transcriptional activity [3] | prostaglandin E(2) production (COX-2 [4]) | protein and mRNA expression of iNOS (iNOS) | effect on LPS-induced COX-2 protein expression (COX-2 [5]) |
| --- | --- | --- | --- | --- | --- | --- |
| CC1=CC(=O)/C(=C/c2ccc(O)c(O)c2)O1 [4a, Inotilone] | suppressed the induction of iNOS | inhibited LPS-induced activation of PI3K/Akt and extracellular signal-regulated kinase 1/2 and p38 mitogen-activated protein kinase | reduction of LPS-induced nuclear translocation of NFkappaB subunit and the NFkappaB-dependent transcriptional activity | inhibited prostaglandin E(2) production | blocked protein and mRNA expression of iNOS | but not of COX-2 |
| COc1cc(/C=C2\OC(C)=CC2=O)ccc1O [4b, 2-(4-Hydroxy-3-methoxy-benzylidene)-5-methyl-furan-3-one] | no effect on LPS induced iNOS protein expression | – | – | – | – | slightly stimulated LPS-induced COX-2 expression |
